Where a name gives a salt, the structure may show the parent alone.
How the values were obtained:
[1] = molecular target: T1, Recombinant human IKKβ (residues 1-737) (Homo sapiens, UniProt O14920); test: IKK2 assay (TR-FRET); type: biochemical; conditions: ATP 1 μM final, read-out: pIC50 against IKK2 (converted)
T1 construct: Recombinant human IKKβ (residues 1-737); GST (C); made in house
T1 sequence (O14920 1-737): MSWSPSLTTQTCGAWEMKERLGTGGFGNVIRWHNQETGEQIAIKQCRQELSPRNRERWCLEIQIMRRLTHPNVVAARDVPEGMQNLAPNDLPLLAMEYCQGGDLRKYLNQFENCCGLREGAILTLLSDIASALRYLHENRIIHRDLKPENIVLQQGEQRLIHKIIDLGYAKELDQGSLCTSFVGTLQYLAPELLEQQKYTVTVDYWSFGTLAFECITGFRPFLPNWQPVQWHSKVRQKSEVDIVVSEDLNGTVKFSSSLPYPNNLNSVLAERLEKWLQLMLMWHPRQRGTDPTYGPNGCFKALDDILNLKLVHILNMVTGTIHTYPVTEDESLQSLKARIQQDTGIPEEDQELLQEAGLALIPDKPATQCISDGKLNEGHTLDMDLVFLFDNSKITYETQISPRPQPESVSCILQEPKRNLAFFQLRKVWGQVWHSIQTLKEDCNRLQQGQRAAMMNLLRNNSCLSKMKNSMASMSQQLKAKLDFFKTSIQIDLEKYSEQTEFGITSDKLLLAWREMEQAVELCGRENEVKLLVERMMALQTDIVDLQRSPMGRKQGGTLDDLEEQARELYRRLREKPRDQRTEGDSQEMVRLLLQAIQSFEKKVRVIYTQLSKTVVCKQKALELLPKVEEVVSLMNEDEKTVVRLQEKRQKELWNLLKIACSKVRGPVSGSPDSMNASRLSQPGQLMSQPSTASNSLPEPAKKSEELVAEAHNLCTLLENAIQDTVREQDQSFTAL
Outline: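 Baculovirus-expressed C-terminal GST-tagged IKKβ (0.5-5 nM final) in HEPES pH 7.4, MgCl2, CHAPS, DTT, BSA with 1.7% DMSO; 25 nM GST-IB substrate and 1 μM ATP, 15 min at room temperature. EDTA stop; phospho-Ser32/36 detected by Eu-antibody/APC-anti-GST TR-FRET, 665/620 nm ratio.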

[2] = system: human monocyte stimulated cytokine production (TNF-α); test: Monocyte assay (LPS-stimulated TNF-α production); type: cell-based; conditions: for IC50: 24 h, 200 ng/mL LPS, TNF-α by ELISA
Outline: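 Human CD14+ monocytes were purified from blood and plated at 1×10^6 cells/mL in RPMI 1640 with 10% FBS. Compound was added 30 min before stimulation with 200 ng/mL LPS (0.1% DMSO final), followed by 24 hrs at 37 C. Supernatant TNF-α was measured by ELISA, and viability by trypan blue exclusion.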

| IC50 [1] | IC50 [2] | Compound | inhibition at 0.3 µM ([2]; read-out: inhibition at 300 nM in the monocyte assay) |
| --- | --- | --- | --- |
| ≤ 10 µM | ≤ 1.5 µM | CCS(=O)(=O)N1CCC(c2c[nH]c3c(C(N)=O)cc(-c4cc(F)cc(CNC[C@H]5CCCO5)c4)cc23)CC1 [Example 313, 3-[1-(ethylsulfonyl)-4-piperidinyl]-5-[3-fluoro-5-({[(2R)-tetrahydro-2-furanylmethyl]amino}methyl)phenyl]-1H-indole-7-carboxamide trifluoroacetate] | – |
| ≤ 10 µM | ≤ 1.5 µM | CCS(=O)(=O)N1CCC(c2c[nH]c3c(C(N)=O)cc(-c4cc(F)cc(CN[C@@H](C)C(C)C)c4)cc23)CC1 [Example 314, 5-[3-({[(1S)-1,2-dimethylpropyl]amino}methyl)-5-fluorophenyl]-3-[1-(ethylsulfonyl)-4-piperidinyl]-1H-indole-7-carboxamide] | – |
| ≤ 10 µM | ≤ 1.5 µM | CCS(=O)(=O)N1CCC(c2c[nH]c3c(C(N)=O)cc(-c4cc(F)cc(CN[C@H](C)C(C)C)c4)cc23)CC1 [Example 315, 5-[3-({[(1R)-1,2-dimethylpropyl]amino}methyl)-5-fluorophenyl]-3-[1-(ethylsulfonyl)-4-piperidinyl]-1H-indole-7-carboxamide trifluoroacetate] | – |
| ≤ 10 µM | ≤ 1.5 µM | CCC(C)NCc1cc(F)cc(-c2cc(C(N)=O)c3[nH]cc(C4CCN(S(=O)(=O)CC)CC4)c3c2)c1 (centres unmarked) [Example 316, 3-[1-(ethylsulfonyl)-4-piperidinyl]-5-(3-fluoro-5-{[(1-methylpropyl)amino]methyl}phenyl)-1H-indole-7-carboxamide trifluoroacetate] | – |
| ≤ 10 µM | ≤ 1.5 µM | CCS(=O)(=O)N1CCC(c2c[nH]c3c(C(N)=O)cc(-c4cc(F)cc(CN[C@@H](C)C(C)(C)C)c4)cc23)CC1 [Example 317, 3-[1-(ethylsulfonyl)-4-piperidinyl]-5-[3-fluoro-5-({[(1S)-1,2,2-trimethylpropyl]amino}methyl)phenyl]-1H-indole-7-carboxamide trifluoroacetate] | – |
| ≤ 10 µM | ≤ 1.5 µM | CC[C@H](C)CNCc1cc(F)cc(-c2cc(C(N)=O)c3[nH]cc(C4CCN(S(=O)(=O)CC)CC4)c3c2)c1 [Example 318, 3-[1-(ethylsulfonyl)-4-piperidinyl]-5-[3-fluoro-5-({[(2S)-2-methylbutyl]amino}methyl)phenyl]-1H-indole-7-carboxamide trifluoroacetate] | – |
| ≤ 10 µM | ≤ 1.5 µM | CCC(C)CNCc1cc(F)cc(-c2cc(C(N)=O)c3[nH]cc(C4CCN(S(=O)(=O)CC)CC4)c3c2)c1 (centres unmarked) [Example 319, 3-[1-(ethylsulfonyl)-4-piperidinyl]-5-(3-fluoro-5-{[(2-methylbutyl)amino]methyl}phenyl)-1H-indole-7-carboxamide trifluoroacetate] | – |
| ≤ 10 µM | ≤ 1.5 µM | CCS(=O)(=O)N1CCC(c2c[nH]c3c(C(N)=O)cc(-c4cc(F)cc(CN[C@H](C)C(C)(C)C)c4)cc23)CC1 [Example 320, 3-[1-(ethylsulfonyl)-4-piperidinyl]-5-[3-fluoro-5-({[(1R)-1,2,2-trimethylpropyl]amino}methyl)phenyl]-1H-indole-7-carboxamide trifluoroacetate] | – |
| ≤ 10 µM | ≤ 1.5 µM | CCS(=O)(=O)N1CCC(c2c[nH]c3c(C(N)=O)cc(-c4cc(F)cc(CNCC(C)(C)C)c4)cc23)CC1 [Example 321, 5-(3-{[(2,2-dimethylpropyl)amino]methyl}-5-fluorophenyl)-3-[1-(ethylsulfonyl)-4-piperidinyl]-1H-indole-7-carboxamide trifluoroacetate] | – |
| ≤ 10 µM | ≤ 1.5 µM | CCS(=O)(=O)N1CCC(c2c[nH]c3c(C(N)=O)cc(-c4cc(F)cc(CNCC5CC5)c4)cc23)CC1 [Example 322, 5-(3-{[(cyclopropylmethyl)amino]methyl}-5-fluorophenyl)-3-[1-(ethylsulfonyl)-4-piperidinyl]-1H-indole-7-carboxamide trifluoroacetate] | – |
| ≤ 10 µM | ≤ 1.5 µM | CCS(=O)(=O)N1CCC(c2c[nH]c3c(C(N)=O)cc(-c4cc(F)cc(CNCC5CCCC5)c4)cc23)CC1 [Example 323, 5-(3-{[(cyclopentylmethyl)amino]methyl}-5-fluorophenyl)-3-[1-(ethylsulfonyl)-4-piperidinyl]-1H-indole-7-carboxamide trifluoroacetate] | – |
| ≤ 10 µM | ≤ 1.5 µM | CCS(=O)(=O)N1CCC(c2c[nH]c3c(C(N)=O)cc(-c4cc(F)cc(CNCC5CCOCC5)c4)cc23)CC1 [Example 324, 3-[1-(ethylsulfonyl)-4-piperidinyl]-5-(3-fluoro-5-{[(tetrahydro-2H-pyran-4-ylmethyl)amino]methyl}phenyl)-1H-indole-7-carboxamide trifluoroacetate] | – |
| ≤ 10 µM | ≤ 1.5 µM | CCS(=O)(=O)N1CCC(c2c[nH]c3c(C(N)=O)cc(-c4cc(F)cc(CNCc5cccs5)c4)cc23)CC1 [Example 325, 3-[1-(ethylsulfonyl)-4-piperidinyl]-5-(3-fluoro-5-{[(2-thienylmethyl)amino]methyl}phenyl)-1H-indole-7-carboxamide trifluoroacetate] | – |
| ≤ 10 µM | ≤ 1.5 µM | CCS(=O)(=O)N1CCC(c2c[nH]c3c(C(N)=O)cc(-c4cc(F)cc(CNCCOC)c4)cc23)CC1 [Example 326, 3-[1-(ethylsulfonyl)-4-piperidinyl]-5-[3-fluoro-5-({[2-(methyloxy)ethyl]amino}methyl)phenyl]-1H-indole-7-carboxamide trifluoroacetate] | – |
| ≤ 10 µM | ≤ 1.5 µM | CCS(=O)(=O)N1CCC(c2c[nH]c3c(C(N)=O)cc(-c4cc(F)cc(CNCCCOC)c4)cc23)CC1 [Example 327, 3-[1-(ethylsulfonyl)-4-piperidinyl]-5-[3-fluoro-5-({[3-(methyloxy)propyl]amino}methyl)phenyl]-1H-indole-7-carboxamide trifluoroacetate] | – |
| ≤ 10 µM | – | CCS(=O)(=O)N1CCC(c2c[nH]c3c(C(N)=O)cc(-c4cc(F)cc(CNCc5ccco5)c4)cc23)CC1 [Example 328, 3-[1-(ethylsulfonyl)-4-piperidinyl]-5-(3-fluoro-5-{[(2-furanylmethyl)amino]methyl}phenyl)-1H-indole-7-carboxamide trifluoroacetate] | 0 to 60% |
| ≤ 10 µM | ≤ 1.5 µM | CCS(=O)(=O)N1CCC(c2c[nH]c3c(C(N)=O)cc(-c4cc(F)cc(CNCCC(C)C)c4)cc23)CC1 [Example 329, 3-[1-(ethylsulfonyl)-4-piperidinyl]-5-(3-fluoro-5-{[(3-methylbutyl)amino]methyl}phenyl)-1H-indole-7-carboxamide trifluoroacetate] | – |
| ≤ 10 µM | > 1 µM | CCS(=O)(=O)N1CCC(c2c[nH]c3c(C(N)=O)cc(-c4cc(F)cc(CNCc5ccc(C)o5)c4)cc23)CC1 [Example 330, 3-[1-(ethylsulfonyl)-4-piperidinyl]-5-[3-fluoro-5-({[(5-methyl-2-furanyl)methyl]amino}methyl)phenyl]-1H-indole-7-carboxamide trifluoroacetate] | – |
| ≤ 10 µM | ≤ 1.5 µM | CCS(=O)(=O)N1CCC(c2c[nH]c3c(C(N)=O)cc(-c4cccc(C5CCCN5)c4)cc23)CC1 (centres unmarked) [Example 332, 3-[1-(ethylsulfonyl)-4-piperidinyl]-5-[3-(2-pyrrolidinyl)phenyl]-1H-indole-7-carboxamide trifluoroacetate] | – |
